In brackets after ≈: the same amount, converted by molar mass. Where two headings read alike, the source gives them in different places.
Experiments:
[1] = tested on: S. faecalis ATCC 7080; experiment: MIC, two-fold dilution microtiter, S. faecalis ATCC 7080; type: cell-based; conditions: 37° C
[2] = tested on: Escherichia coli SKF 12140; experiment: MIC, two-fold dilution microtiter, E. coli SKF 12140; type: cell-based; conditions: 18-24 h, 37° C
[3] = tested on: S. pneumoniae UC 41; experiment: MIC, two-fold dilution microtiter, S. pneumoniae UC 41; type: cell-based; conditions: 18-24 h, 37° C
[4] = tested on: Mycobacterium tuberculosis H37RV ATCC 9360; experiment: MIC, M. tuberculosis H37RV, Kirschner medium; type: cell-based; conditions: 10% horse serum, 7 days, 37° C
Method: (§1) The minimum inhibitory concentration (MIC) of representative compounds of the invention was determined using two-fold dilution method in microtiter system. The media used were: Todd-Hewitt broth (Difco) for steptococci; Iso-Sensitest broth (Oxoid) for staphylococci and gram-negative bacteria. The final inoculum was about 10^4 cfμ/ml. […] For M. tuberculosis H37 RV the inoculum consisted of 0.5-1% of a 7-9 day culture in Dubos medium. The tests were carried out in Kirschner medium supplemented with 10% horse serum. Observations were made after 7-days incubation at 37° C.

[5] = tested on: Pseudomonas aeruginosa ATCC 10145; experiment: MIC, two-fold dilution microtiter, P. aeruginosa ATCC 10145; type: cell-based; conditions: P. aeruginosa ATCC 10145, Iso-Sensitest broth, 18-24 h, 37° C
[6] = tested on: Proteus vulgaris XI9H ATCC 881; experiment: MIC, two-fold dilution microtiter, P. vulgaris; type: cell-based; conditions: P. vulgaris XI9H ATCC 881, Iso-Sensitest broth, 18-24 h, 37° C
[7] = tested on: Klebsiella pneumoniae ISM; experiment: MIC, two-fold dilution microtiter, K. pneumoniae ISM; type: cell-based
[8] = tested on: S. aureus TOUR L 165; experiment: MIC, two-fold dilution microtiter, S. aureus TOUR L 165; type: cell-based, Staphylococcus aureus
[9] = tested on: Staphylococcus aureus ATCC 6538; experiment: MIC, two-fold dilution microtiter, S. aureus ATCC 6538; type: cell-based; conditions: S. aureus ATCC 6538, Iso-Sensitest broth, 18-24 h, 37° C
[10] = tested on: Streptococcus pyogenes C203; experiment: MIC, two-fold dilution microtiter, S. pyogenes C203; type: cell-based; conditions: Todd-Hewitt broth, 18-24 h, 37° C
Method: as §1

[11] = tested on: S. aureus TOUR L 1282; experiment: MIC, two-fold dilution microtiter, rifampicin resistant S. aureus TOUR L 1282; type: cell-based; conditions: Staphylococcus aureus, TOURL1282, rifampicin resistant strain
[12] = tested on: S. aureus tour L 165; experiment: experimental septicemia in mice (S. aureus); type: in vivo; conditions: Staphylococcus aureus, once daily for three days, survival on 10th day
Method: The antimicrobial activity of the compounds of the invention is also confirmed in "in vivo" tests. The animals (groups of five mice) were infected by intraperitoneal injection of 16-hour broth culture of S. aureus tour L 165. Inocula were adjusted so that untreated animals died of septicemia within 48 hours. Animals were treated once daily for three days starting immediately after infection. On the 10th day the value for the ED50 in mg/kg/day was calculated by the method of […]-KARBER (Finney, D. J., Statistical method in biological assay, page 524. C. Griffin Ltd., London, 1952), on the basis of the percentage of surviving animals at each dose.

[13] = Enterococcus faecalis, ATCC7080, 18-24 h, read-out: MIC
[14] = Escherichia coli, SKF12140, Iso-Sensitest broth, read-out: MIC
[15] = Streptococcus pneumoniae, UC41, Todd-Hewitt broth, read-out: MIC
[16] = Mycobacterium tuberculosis, 168 h, read-out: MIC
[17] = Pseudomonas aeruginosa, ATCC10145, read-out: MIC
[18] = Proteus vulgaris, ATCC881, read-out: MIC
[19] = Klebsiella pneumoniae, K. pneumoniae ISM, Iso-Sensitest broth, 18-24 h, 37° C, read-out: MIC
[20] = Staphylococcus aureus, TOURL165, S. aureus TOUR L 165, Iso-Sensitest broth, 18-24 h, 37° C, read-out: MIC
[21] = Staphylococcus aureus, TOURL165, S. aureus TOUR L 165, supplemented with 30% bovine serum, read-out: MIC
[22] = Staphylococcus aureus, ATCC6538, read-out: MIC
[23] = Streptococcus pyogenes, read-out: MIC

Row | Compound | MIC [1, 13] [µg/mL] | MIC [2, 14] [µg/mL] | MIC [3, 15] [µg/mL] | MIC [4, 16] [µg/mL] | MIC [5, 17] [µg/mL] | MIC [6, 18] [µg/mL] | MIC [11] [µg/mL] | MIC [7, 19] [µg/mL] | MIC [8, 20] [µg/mL] | MIC [8, 21] [µg/mL] | MIC [9, 22] [µg/mL] | MIC [10, 23] [µg/mL] | ED50 ([12]; TOURL165, 240 h, sc) [mg/kg] | ED50 ([12]; TOURL165, po, 240 h, os) [mg/kg] | further results
1 | 2'(4"-phenylmethoxycarbonyl-1"-piperazinyl) rifamycin P [Example 1f] |  |  |  |  |  |  |  |  |  |  |  |  |  |  | MIC ([1]; 18-24 h): 2 µg/mL; MIC ([2]; Iso-Sensitest broth): > 128 µg/mL; MIC ([3]; Todd-Hewitt broth): 0.064 µg/mL; MIC [4]: 0.5 µg/mL; MIC [5]: 32 µg/mL; MIC [6]: 64 µg/mL; MIC ([7]; K. pneumoniae ISM, Iso-Sensitest broth, 18-24 h, 37° C): > 128 µg/mL; MIC ([8]; S. aureus TOUR L 165, Iso-Sensitest broth, 18-24 h, 37° C): 0.064 µg/mL; MIC ([8]; S. aureus TOUR L 165, supplemented with 30% bovine serum): 0.064 µg/mL; MIC [9]: 0.064 µg/mL; MIC [10]: 0.125 µg/mL
2 | COC1C=COC2(C)Oc3c(C)c(O)c4c(O)c(c5sc(N6CCCC6)nc5c4c3C2=O)NC(=O)C(C)=CC=CC(C)C(O)C(C)C(O)C(C)C(OC(C)=O)C1C (stereo not drawn) [Example 1a, 2'-(1"-PyrrolidinyL) rifamycin P] | 2 (≈ 2.48 µM) | 16 (≈ 19.8 µM) | 0.032 (≈ 0.0396 µM) | 2 (≈ 2.48 µM) | 8 (≈ 9.9 µM) | 16 (≈ 19.8 µM) | > 128 | 32 (≈ 39.6 µM) | 0.004 (≈ 0.00495 µM) | 0.016 (≈ 0.0198 µM) | 0.016 (≈ 0.0198 µM) | 0.008 (≈ 0.0099 µM) |  |  | 
3 | COC1C=COC2(C)Oc3c(C)c(O)c4c(O)c(c5sc(N6CCOCC6)nc5c4c3C2=O)NC(=O)C(C)=CC=CC(C)C(O)C(C)C(O)C(C)C(OC(C)=O)C1C (stereo not drawn) [Example 1b, 2'-(4"-morpholinyl) rifamycin P] | 1 (≈ 1.21 µM) | 16 (≈ 19.4 µM) | 0.016 (≈ 0.0194 µM) | 2 (≈ 2.43 µM) | 16 (≈ 19.4 µM) | 8 (≈ 9.71 µM) | 64 (≈ 77.7 µM) | 32 (≈ 38.8 µM) | 0.002 (≈ 0.00243 µM) | 0.008 (≈ 0.00971 µM) | 0.001 (≈ 0.00121 µM) | 0.032 (≈ 0.0388 µM) | 0.21 | 0.21 | 
4 | COC1C=COC2(C)Oc3c(C)c(O)c4c(O)c(c5sc(N6CCN(c7ccccc7)CC6)nc5c4c3C2=O)NC(=O)C(C)=CC=CC(C)C(O)C(C)C(O)C(C)C(OC(C)=O)C1C (stereo not drawn) [Example 1c, 2'(4"-phenyl-1"-piperazinyl) rifamycin P] | 1 (≈ 1.11 µM) | 4 (≈ 4.45 µM) | 0.004 (≈ 0.00445 µM) | 1 (≈ 1.11 µM) | 8 (≈ 8.9 µM) | 16 (≈ 17.8 µM) | > 128 |  | 0.008 (≈ 0.0089 µM) | 0.016 (≈ 0.0178 µM) | 0.004 (≈ 0.00445 µM) | 0.032 (≈ 0.0356 µM) | 0.63 | 2.5 | MIC ([7]; Klebsiella pneumoniae): > 128 µg/mL
5 | COC1C=COC2(C)Oc3c(C)c(O)c4c(O)c(c5sc(N6CCN(Cc7ccccc7)CC6)nc5c4c3C2=O)NC(=O)C(C)=CC=CC(C)C(O)C(C)C(O)C(C)C(OC(C)=O)C1C (stereo not drawn) [Example 1d, 2'(4"-phenylmethyl-1"-piperazinyl) rifamycin P] | 1 (≈ 1.1 µM) | 32 (≈ 35 µM) | 0.064 (≈ 0.0701 µM) | 0.125 (≈ 0.137 µM) | 16 (≈ 17.5 µM) | 32 (≈ 35 µM) | > 128 | 64 (≈ 70.1 µM) | 0.008 (≈ 0.00876 µM) | 0.016 (≈ 0.0175 µM) | 0.004 (≈ 0.00438 µM) | 0.064 (≈ 0.0701 µM) |  |  | 
6 | CCOC(=O)N1CCN(c2nc3c(s2)c2c(O)c4c(O)c(C)c5c(c43)C(=O)C(C)(OC=CC(OC)C(C)C(OC(C)=O)C(C)C(O)C(C)C(O)C(C)C=CC=C(C)C(=O)N2)O5)CC1 (stereo not drawn) [Example 1e, 2'(4"-ethoxycarbonyl-1"-piperazinyl) rifamycin P] | 4 (≈ 4.47 µM) | 16 (≈ 17.9 µM) | 0.064 (≈ 0.0715 µM) | 2 (≈ 2.23 µM) | 32 (≈ 35.8 µM) | 16 (≈ 17.9 µM) | 128 (≈ 143 µM) | 32 (≈ 35.8 µM) | 0.064 (≈ 0.0715 µM) | 0.064 (≈ 0.0715 µM) | 0.032 (≈ 0.0358 µM) | 0.064 (≈ 0.0715 µM) |  |  | 
